Assay results from patent publication US10610608B2, “Modular imaging agents containing amino acids and peptides” (Rochester Institute of Technology, priority 2013, dated 2020).

Tested on: live A549 human cancer cells
Assay: Confocal fluorescence microscopy (CFM) of live A549 cells stained with c(RGDyK) peptide conjugates (TMIAs)
Type: cell-based
Conditions: 5 μM conjugate, 2 hours incubation, 37° C., HeNe633 laser
Experimental: The general protocol for Confocal Microscopy by Chen, et al was followed with the following detailed procedures for cell culture and staining.
Cell Preparation: An A549 culture obtained from the American Type Culture Collection (ATCC) was grown to 50-70% confluency in an In Vitro Scientific 35 mm culture dish with 10 mm Glass bottom well. The culture was incubated in DMEM (Dulbecco's Modified Eagle Medium) with 10% Fetal Bovine Serum (FBS) overnight at 37° C. and 5% CO2. To obtain a suspension cell culture for transfer purpose, the cells were washed with Phosphate Buffered Saline (PBS) and then 0.25% Trypsin-EDTA (1×) (Invitrogen) was added to detach the cells.
Cell Staining: The cells were washed 3× with pre-heated PBS (Phosphate-buffered saline). 5 μM c(RGDyK) peptide conjugates (TMIAs) were added to the 10 mm glass bottom well and incubated at 37° C. and 5% CO2. Cells were then washed 4× with chilled PBS. The samples were viewed immediately under the scanning laser confocal microscope (Leica Microsystems Inc.). Confocal Microscopy Scanning: Leica TCS SP5 II AOBS Filter Free Tunable Spectral Confocal Research Microscope with Resonant Scanner and Hybrid Detectors attached to Leica DMI6000 Fully Automated Microscope was used, with 40× water immersion objective. The 405 Diode and HeNe633 lasers were employed for visualizing suspected auto-fluorescence, c(RGDyK) Cy5.5-TMIA respectively. […]

c(RGDyK)-SMCC-DLys(Cy5.5)-Lys(Gd-DOTA)-NH2 [Compound (44)]
CFM image: fluorescence of the TMIA in the cell: illuminated areas a result of fluorescence of the TMIA
